Experimental data published in BigSolDB 2.1.

C/C(=C/C(C)=N/c1c(C(C)C)cccc1C(C)C)Nc1c(C(C)C)cccc1C(C)C
solubility (mole fraction)
Details	in THF	in ethanol	in methanol	in n-hexane	in toluene
268.15 K	0.101	0.0008	–	0.0374	0.054
273.15 K	0.108	0.0009	–	0.0417	0.061
278.15 K	0.114	0.001	–	0.0464	0.0673
283.15 K	0.122	0.0013	0.0001	0.048	0.078
288.15 K	0.138	0.0015	0.0002	0.0546	0.087
293.15 K	0.15	0.0019	0.0002	0.0609	0.099
298.15 K	0.169	0.0022	0.0003	0.0699	0.108
303.15 K	0.184	0.0025	0.0004	0.078	0.127
308.15 K	0.199	0.003	0.0005	0.0891	0.145
313.15 K	0.223	0.0036	0.0007	0.103	0.151
318.15 K	–	–	0.0008	–	–
